Results published in US12697322B2, “Methods of treating cancer using androgen receptor antagonists” (Garvan Institute of Medical Research, priority 2019, dated 2026).
Entries after “also recorded” stand apart in the source; their conditions may differ.

Experiments:
[1] = tested on: HMLER and HCC38 CD44^Lo cells; assay: Flow cytometry of chemotherapy-induced CD44^Lo to CD44^Hi plasticity; type: cell-based, human; conditions: for induction of CD44^Lo-to-CD44^Hi transition by chemotherapy: one dose of chemotherapy for 72 hours; for blocking of chemotherapy-induced CD44^Lo-to-CD44^Hi transitions: with chemotherapy simultaneously for 72 hours, Seviteronel 10 μM
Excerpt: Cells were stained and fixed as with DHT treatment.
Using purified populations of CD44^Lo cells (with no CD44^Hi fraction) the effects of chemotherapy on cellular plasticity was investigated using flow cytometry.

AR full length (100 kDa) = assay: AR siRNA knockdown, western blot; type: cell-based, human; conditions: HCC38 CD44^Hi cells, 20 nM siRNA, 72 h post transfection
Experimental: Protein was extracted from cell lysates using RIPA lysis buffer (sc-24948) or specific lysis buffer for phospho-proteins detection (20 mM Tris-HC1 pH 7.6, 137 mM NaCl, 1% NP40, 0.5% Na-deoxycholate, 10 mM NaF, 20 mM β-glycerophosphate, 1 mM Na-orthovanadate and 1:200 complete protease inhibitors). 25-30 μg of proteins were run in a 4-12% Bis-tris gel (Invitrogen). Proteins were transferred to a PVDF membrane (BioRad). After blocking with 5% BSA (w/v) and 0.05% (v/v) Tween-20 in PBS, the membranes were incubated overnight with the indicated antibodies, washed with PBS 0.05% (v/v) Tween-20 and incubated with the corresponding horseradish peroxidase-conjugated secondary antibodies (Cell Signaling; Dil 1/5000, Table 3) for 30 min. Blots were developed using Western Lightning Plus ECL (PerkinElmer) and FusionFx7 Digital Imager, Band intensities were quantified using Fiji (Schindelin et al., 2012) and results were represented relative to controls.
siRNAs targeting exon 1 and 7 of AR full length were designed in-house (SEQ ID NOs: 6 and 7). HCC38 CD44^Hi cells (10^5/well) were seeded in M6 plate wells 24 hours prior to siRNA transfection. 20 nM of siRNA CT, siRNA AR Ex1 or AR Ex7 were delivered using lipofectamine 3000 (Thermofisher) as per manufacturer instructions.

[2] = tested on: HMLER-CD44Hi and HCC38 CD44Hi cells; assay: Tumoursphere formation assay; type: cell-based, human
[3] = tested on: HMLER-CD44Hi and HCC38 CD44Hi cells; assay: Tumoursphere formation assay; type: cell-based, human; conditions: CD44^Hi cells, counted at Day 14
Experimental: Single cell suspensions were plated in ultra-low attachment 96-well plates (Corning #CLS3474, New York, USA). HMLE-CD44^Hi cells were plated at a density of 50 cells/well in 100 μl of BPA-free MEGM media (Lonza # CC-3150, Basal, Switzerland). HCC38-CD44^Hi cells were plated at a density of 100 cells/well in serum-free RPMI with 1% penicillin/streptomycin, 20 ng/ml EGF, 20 ng/ml FGFb, 4 μg/mL heparin, 1×B27 and 1% methyl cellulose (Sigma). Media was replenished every five days by adding 50 μL of the appropriate tumoursphere media to each well. Tumourspheres were counted at Day 14. Results are presented as tumoursphere formation efficiency (number of spheres per well divided by the number of cells seeded per well). At Day 14, mammospheres were collected using a 40 μm cell strainer, washed with PBS and dissociated using trypsin-EDTA solution, and stained with anti-CD44PECy7 and anti-CD104PE as per standard FACS staining protocol.

[4] = tested on: MDA_MB-231-EGFP-Luc cells; assay: MDA-MB-231-EGFP-Luc orthotopic xenograft, Docetaxel and Seviteronel (Example 12, FIG. 12); type: in vivo, NSG female mice
Experimental: 1×10^6 MDA_MB-231-EGFP-Luc cells were injected orthotopically into the mammary fat pad of NSG female mice. 14 animals were enrolled per treatment arm to reach 80% statistical power. Tumour size was monitored by caliper measurement twice per week. At the time tumour size reached 50-150 mm^3 animals were randomized into treatment arms: Vehicle (Veh), Seviteronel (Sev), Docetaxel, Docetaxel+Seviteronel. Seviteronel (100 mg/kg) was administrated via oral gavage daily (6 days on+1 day off) for cycles of 4. Seviteronel was resuspended into a 5% DMSO, 0.1% Tween 80, Hydro-methylcellulose solution at a 5 mg/ml concentration. […] Growth kinetics were monitored through the course of treatment and plotted using graph-pad prism (V9). […] At treatment endpoint, animals were injected with luciferin (10 μl/gr of 15 mg/ml stock) and metastatic burden analyzed using an IVIS spectrum imager 10 min post injection. […]
1×10^6 MDA_MB-231-EGFP-Luc cells were injected orthotopically into the mammary fat pad of NSG female mice. […] Tumour size was monitored by caliper measurement twice per week. […] Growth kinetics were monitored through the course of treatment by caliper measurement. […] Metastasis development was monitored until animals reached ethical end-point by weekly IVIS imaging. […]

[5] = tested on: MDA-MB-231 EGFP-Luciferase cells; assay: MDA-MB-231 xenograft, Seviteronel and Docetaxel (Example 5, FIG. 11); type: in vivo, mice; conditions: Seviteronel 100 mg/kg daily oral gavage, DTX 40 mg/kg i.p., 3 doses
Experimental: Forty-eight mice were enrolled in the experiment and randomized into 4 treatment arms: Vehicle (Veh), Seviteronel (Sev), Docetaxel (DTX) or combination therapy (Sev+Dtx). Animals were 6-8 weeks of age at the time of injection. MDA-MB-231 EGFP-Luciferase cells were cultured in DMEM 10% FBS 1% P/S. On the surgery date, 1×10^6 cells resuspended in 20% Matrigel/DMEM were injected unilaterally into the mammary fat pad. Tumour growth was monitored twice per week to establish growth kinetics. Five weeks post-injection, when tumour size ranged between 50-100 mm^3, animals were randomized to receive daily oral gavage with either vehicle (1% Carboxymethylcellulose, 0.1% Tween-80 and 5% DMSO) or Seviteronel (100 mg/kg). Animals were dosed from Monday to Saturday, leaving 1 day recovery per week. After one week, animals were again randomized within the Vehicle or Seviteronel groups to Control or Chemotherapy (DTX). […] Metastatic burden and tumour size was determined using the IVIS-spectrum imaging system. […] The presence of metastatic cells in each organ was additionally determined by FACS analysis (fluorescence activate cell sorting) using a panel of antibodies previously established in the lab (CD298-PE, CD44-PEcy7 and CD104EF660). Results were analyzed and graphed using Flowjo3 and prism 8. […] Metastatic incidence was analyzed applying two-way ANOVA uncorrected Fisher's LSD test.

[6] = tested on: CD44^Hi cells isolated from HMLER and HCC38 cell lines; assay: Cell proliferation assay (CyQuant); type: cell-based, human; conditions: for CD44^Hi proliferation: CD44^Hi cells from HMLER and HCC38
Experimental: HMLER, HCC38 and MDA-MB-231 cells were plated in triplicate in 96-well plates at the densities outlined in Table 3. After 24 hours, cells were treated with various chemotherapeutic agents at the following doses: Doxorubicin (0 nM, 25 nM, 50 nM, 75 nM, 100 nM, 200 nM), Cisplatin (0 μg/ml, 0.1 μg/ml, 0.5 μg/ml, 1 μg/ml, 2 μg/ml, 5 μg/ml) or Docetaxel (0 nM, 1 nM, 5 nM, 10 nM, 25 nM, 50 nM); Androgen receptor agonists: Enobosarm (0 nM, 25 nM, 50 nM, 100 nM, 200 nM, 400 nM) or DHT (0 nM, 1 nM, 5 nM, 10 nM, 20 nM, 40 nM); or AR antagonist: Seviteronel (0 nM, 0.5 nM, 2 nM, 10 nM, 20 nM, 50 nM). Assays were harvested daily for five days by removing culture media and storing at −80′C. Cell proliferation was determined using CyQuant Cell Proliferation assay kit according to manufacturer's protocol (ThermoFisher Scientific) and fluorescence was measured at ~480 nm excitation and ~520 nm emission using a microplate reader.

COc1cccc2c1C(=O)c1c(O)c3c(c(O)c1C2=O)C[C@@](O)(C(=O)CO)C[C@@H]3O[C@H]1C[C@H](N)[C@H](O)[C@H](C)O1 [Doxorubicin]
induction of CD44^Lo-to-CD44^Hi transition by chemotherapy [1]: induce CD44^Lo cells to transition to the CD44^Hi state

siRNA AR Ex1: in-house siRNA against AR full length, SEQ ID NO: 6 (GCUUCUGGGUGUCACUAUGUU; listed as RNA, chemistry not given here)
expression of AR full length (AR full length (100 kDa)): strong reduction

AR Ex7: in-house siRNA targeting AR exon 7, SEQ ID NO: 7 (GGAACUCGAUCGUAUCAUUUU; listed as RNA, chemistry not given here)
expression of AR full length (AR full length (100 kDa)): strong reduction

CC(C)[C@](O)(c1ccc2cc(OC(F)F)c(OC(F)F)cc2c1)c1c[nH]nn1 [Seviteronel, (1S)-1-[6,7-bis(difluoromethoxy)naphthalen-2-yl]-2-methyl-1-(2H-triazol-4-yl)propan-1-ol]
size of tumorspheres [2]: reduces the size of tumorspheres | tumoursphere formation (tumoursphere-forming efficiency) [3]: decrease; also recorded: dose-dependently inhibits tumoursphere-forming ability | blocking of chemotherapy-induced CD44^Lo-to-CD44^Hi transitions [1]: blocks chemotherapy-induced CD44^Lo-to-CD44^Hi transitions; also recorded: inhibits chemotherapy-induced CD44Lo-to-CD44-Hi plasticity; also recorded: can be blocked | tumour growth compared with Veh (FIG. 12B) ([4]; Seviteronel 150 mg/kg/day 1st week then 100 mg/kg/day for 3 weeks, Dtx 20 mg/kg i.p. x3): significantly reduces tumour growth compared with Veh treatmet arm | tumour growth [5]: significantly reduces tumour growth kinetics compared to control | CD44^Hi proliferation [6]: decreased CD44Hi proliferation; also recorded: decrease CD44^Hi proliferation; also recorded: inhibits the growth of CD44^Hi cells

CNC(=O)c1ccc(N2C(=S)N(c3ccc(C#N)c(C(F)(F)F)c3)C(=O)C2(C)C)cc1F [Enzalutamide, 4-{3-[4-cyano-3-(trifluoromethyl)phenyl]-5,5-dimethyl-4-oxo-2-sulfanylideneimidazolidin-1-yl}-2-fluoro-iV-methylbenzamide]
blocking of chemotherapy-induced CD44^Lo-to-CD44^Hi transitions [1]: not as effective as Seviteronel | CD44^Hi proliferation [6]: decreased CD44Hi proliferation; also recorded: decrease CD44^Hi proliferation | treatment required to equal the effect of Seviteronel ([6]; CD44^Hi proliferation and tumoursphere formation): daily treatment of Enzalutamide was required to equal one dose of Seviteronel

CC(=O)O[C@@]12CO[C@@H]1C[C@H](O)[C@@]1(C)C(=O)[C@H](O)C3=C(C)[C@@H](OC(=O)[C@H](O)[C@@H](NC(=O)OC(C)(C)C)c4ccccc4)C[C@@](O)([C@@H](OC(=O)c4ccccc4)[C@H]21)C3(C)C [Docetaxel]
induction of CD44^Lo-to-CD44^Hi transition by chemotherapy [1]: induce CD44^Lo cells to transition to the CD44^Hi state | animals clear of metastasis (metastasis free survival) ([4]; 10 weeks following commencement of second round of treatment (Day 77), IVIS): 0% | tumour growth [5]: significantly reduces tumour growth compared to Seviteronel alone

C[C@]12CC[C@H](O)CC1=CC[C@@H]1[C@@H]2CC[C@]2(C)C(c3cccnc3)=CC[C@@H]12 [Abiraterone, (3p)-17-(pyridin-3-yl) androsta-5, 16-dien-3-ol]
tumoursphere formation (tumoursphere-forming efficiency) [3]: decrease | CD44^Hi proliferation [6]: decreased CD44Hi proliferation; also recorded: decrease CD44^Hi proliferation
